From patent US20080090805A1, “CB-1 MODULATING COMPOUNDS AND THEIR USE” (ACADIA PHARMACEUTICALS INC., priority 2005, published 2008) come the findings set out here.

Each structure is given as a SMILES string.

A short description of series [1]: Clearance study, liver microsomes (human). The note with it: pH 7.4.
The nature of series [2]: Clearance study, liver microsomes (rats). The note with it: rat, pH 7.4.

Usually microsomal CLint stands for a measure of how fast metabolising enzymes remove a compound, apart from limits set by blood flow. For `CC(C)CNC(=O)c1ccc2c(c1)N=C(c1ccc(Cl)s1)c1ccc(Cl)cc1S2` [drawing 1679], the figures for the microsomal CLint at 1 μM in series [1] and in series [2] were 5 µL/min/mg and 56 µL/min/mg, respectively.

As to `CCCCNC(=O)c1ccc2c(c1)N=C(c1cccc(Cl)c1)c1cc(F)ccc1S2` [drawing 1682], the results for the microsomal CLint at 1 μM in series [1] and in series [2] were 16 µL/min/mg and 63 µL/min/mg, respectively.

Take `CCCCNC(=O)c1ccc2c(c1)N=C(c1ccc(Cl)cc1)c1cc(Cl)ccc1S2` [drawing 1688]: the intrinsic metabolic clearance (microsomal CLint) at 1 μM in series [1] was found to be 13 µL/min/mg; in series [2], 52 µL/min/mg.

As for `Cc1cccc(C2=Nc3cc(C(=O)NCC(C)C)ccc3Sc3ccccc32)n1` [drawing 1692], the microsomal CLint at 1 μM amounted to 35 µL/min/mg in series [1] and 204 µL/min/mg in series [2].

On to `CCCCNC(=O)c1ccc2c(c1)N=C(c1ccc(Cl)s1)c1ccc(Cl)cc1S2` [drawing 1694], for which the microsomal CLint at 1 μM in series [1] amounted to 15 µL/min/mg; in series [2], 55 µL/min/mg.

`O=C(NNCC(F)(F)F)c1ccc2c(c1)N=C(c1ccc(Cl)cc1)c1ccccc1S2` [drawing 1696]: the microsomal CLint at 1 μM in series [1] is 21 µL/min/mg; in series [2], 39 µL/min/mg.

Regarding `Cc1ccc(CNC(=O)c2ccc3c(c2)N=C(c2ccc(Cl)s2)c2ccccc2S3)o1` [drawing 1697], the figures for the microsomal CLint at 1 μM in series [1] and in series [2] were 30 µL/min/mg and 124 µL/min/mg, respectively.

With `CCN(CCNC(=O)c1ccc2c(c1)N=C(c1ccc(Cl)cc1)c1ccccc1S2)c1ccccc1` [drawing 1698], the microsomal CLint at 1 μM in series [1] is 157 µL/min/mg; in series [2], 210 µL/min/mg.

With `O=C(NC1CCC(F)(F)CC1)c1ccc2c(c1)N=C(c1ccc(Cl)s1)c1ccccc1S2` [drawing 1699], the microsomal CLint at 1 μM is 20 µL/min/mg in series [1] and 158 µL/min/mg in series [2].

As to `Cc1ccsc1C1=Nc2cc(C(=O)NCCCC(F)(F)F)ccc2Sc2ccccc21` [drawing 1701], the microsomal CLint at 1 μM in series [1] stood at 379 µL/min/mg; in series [2] it was 297 µL/min/mg.

Consider `CCCCNC(=O)c1ccc2c(c1)N=C(c1ccc(Cl)cc1)c1cc(F)ccc1S2` [drawing 1702], for which the values for the microsomal CLint at 1 μM in series [1] and in series [2] were 12 µL/min/mg and 74 µL/min/mg, respectively.

For the compound `O=C(NCCCC(F)(F)F)c1ccc2c(c1)N=C(c1ccc(Cl)cc1)c1ccccc1S2` [drawing 1703], the microsomal CLint at 1 μM in series [1] turned out to be 13 µL/min/mg; in series [2], 86 µL/min/mg.

For `Cc1ccc(CNC(=O)c2ccc3c(c2)N=C(c2cccc(Cl)c2)c2ccccc2S3)o1` [drawing 1705], the microsomal CLint at 1 μM in series [1] came to 37 µL/min/mg; in series [2], 147 µL/min/mg.

As for `Cc1csc(CNC(=O)c2ccc3c(c2)N=C(c2ccc(Cl)s2)c2ccccc2S3)c1` [drawing 1707], the microsomal CLint at 1 μM in series [1] was determined as 27 µL/min/mg; in series [2] it was 90 µL/min/mg.

Regarding `Cc1csc(CNC(=O)c2ccc3c(c2)N=C(c2cccc(F)c2)c2ccccc2S3)c1` [drawing 1709], the microsomal CLint at 1 μM in series [1] was 42 µL/min/mg; in series [2], 160 µL/min/mg.

As to `CCCCNC(=O)c1ccc2c(c1)N=C(c1ccc(Cl)s1)c1cc(F)ccc1S2` [drawing 1710], the microsomal CLint at 1 μM in series [1] amounted to 41 µL/min/mg; in series [2] it was 111 µL/min/mg.

With `Cc1ccc(CNC(=O)c2ccc3c(c2)N=C(c2ccc(F)cc2)c2ccccc2S3)o1` [drawing 1711], the microsomal CLint at 1 μM in series [1] came out at 39 µL/min/mg; in series [2], 258 µL/min/mg.

With `O=C(NCc1cccc(Cl)c1)c1ccc2c(c1)N=C(N1CCC(F)CC1)c1ccccc1S2` [drawing 1714], the microsomal CLint at 1 μM was determined as 96 µL/min/mg in series [1] and 477 µL/min/mg in series [2].

`CC(CNC(=O)c1ccc2c(c1)N=C(c1ccc(Cl)cc1)c1cc(F)ccc1S2)c1ccccc1` (centres unmarked) [drawing 1716]: the values for the microsomal CLint at 1 μM in series [1] and in series [2] were 39 µL/min/mg and 165 µL/min/mg, respectively.

`CC(C)CNC(=O)c1ccc2c(c1)N=C(c1ccc(Cl)cc1)c1ccc(Cl)cc1S2` [drawing 1718]: the microsomal CLint at 1 μM in series [1] was 4 µL/min/mg; in series [2] it was 37 µL/min/mg.

In the case of `O=C(NCCCC(F)(F)F)c1ccc2c(c1)N=C(c1cccc(F)c1)c1ccccc1S2` [drawing 1719], the values for the microsomal CLint at 1 μM in series [1] and in series [2] were 24 µL/min/mg and 182 µL/min/mg, respectively.

On to `O=C(NCCC(F)(F)F)c1ccc2c(c1)N=C(c1cccc(Cl)c1)c1ccccc1S2` [drawing 1721], for which the results for the microsomal CLint at 1 μM in series [1] and in series [2] were 18 µL/min/mg and 40 µL/min/mg, respectively.

Consider `CCCCNC(=O)c1cnc2c(n1)N=C(c1ccccc1)c1ccccc1S2` [drawing 1722], for which the figures for the microsomal CLint at 1 μM in series [1] and in series [2] were 38 µL/min/mg and 44 µL/min/mg, respectively.

With `CCOC(=O)N1CCC(NC(=O)c2ccc3c(c2)N=C(c2ccc(Cl)cc2)c2ccccc2S3)CC1` [drawing 1726], the results for the microsomal CLint at 1 μM in series [1] and in series [2] were 88 µL/min/mg and 89 µL/min/mg, respectively.

As for `Cc1csc(CNC(=O)c2ccc3c(c2)N=C(c2cccc(C)n2)c2ccccc2S3)c1` [drawing 1727], the microsomal CLint at 1 μM in series [1] came out at 113 µL/min/mg; in series [2], 725 µL/min/mg.

Regarding `O=C(NCc1cccc(Cl)c1)c1ccc2c(c1)N=C(c1cccc(Cl)c1)c1ccccc1S2` [drawing 1729], the microsomal CLint at 1 μM in series [1] stood at 36 µL/min/mg; in series [2] it was 74 µL/min/mg.

For `O=C(NCCc1ccc(Cl)cc1)c1ccc2c(c1)N=C(N1CCC(F)CC1)c1ccccc1S2` [drawing 1734], the microsomal CLint at 1 μM in series [1] worked out at 476 µL/min/mg; in series [2], 670 µL/min/mg.

Take `O=C(NCCc1ccc(Cl)cc1)c1ccc2c(c1)N=C(C1CCCCC1)c1ccccc1S2` [drawing 1737]: the microsomal CLint at 1 μM in series [1] is 138 µL/min/mg; in series [2], 230 µL/min/mg.

For the compound `O=C(NCc1ccc(F)cc1)c1ccc2c(c1)N=C(N1CCCCC1)c1ccccc1S2` [drawing 1738], the microsomal CLint at 1 μM in series [1] was 255 µL/min/mg; in series [2], 735 µL/min/mg.

With `O=C(NCCc1ccc(Cl)cc1)c1ccc2c(c1)N=C(c1cccc(Cl)c1)c1ccccc1S2` [drawing 1739], the values for the microsomal CLint at 1 μM in series [1] and in series [2] were 62 µL/min/mg and 83 µL/min/mg, respectively.

`CC(CNC(=O)c1ccc2c(c1)N=C(c1ccc(Cl)cc1)c1ccccc1S2)c1ccccc1` (centres unmarked) [drawing 1743]: the microsomal CLint at 1 μM in series [1] was 62 µL/min/mg; in series [2] it was 179 µL/min/mg.

As for `O=C(NCCc1ccccc1)c1ccc2c(c1)N=C(c1ccc(Cl)cc1)c1ccccc1S2` [drawing 1745], the results for the microsomal CLint at 1 μM in series [1] and in series [2] were 62 µL/min/mg and 144 µL/min/mg, respectively.

On to `CC(C)CNC(=O)c1ccc2c(c1)N=C(c1ccc(Cl)cn1)c1ccc(F)cc1S2` [drawing 1746], for which the microsomal CLint at 1 μM amounted to 25 µL/min/mg in series [1] and 175 µL/min/mg in series [2].

Take `CCN(CCNC(=O)c1ccc2c(c1)N=C(C1CCCCC1)c1ccccc1S2)c1ccccc1` [drawing 1747]: the microsomal CLint at 1 μM in series [1] was determined as 249 µL/min/mg; in series [2], 379 µL/min/mg.

Consider `CCCCNC(=O)c1ccc2c(c1)N=C(c1ccc(Cl)cn1)c1cc(F)ccc1S2` [drawing 1748], for which the microsomal CLint at 1 μM stood at 57 µL/min/mg in series [1] and 131 µL/min/mg in series [2].

With `CCN(CCNC(=O)c1ccc2c(c1)N=C(c1ccc(F)cc1)c1ccccc1S2)c1ccccc1` [drawing 1749], the microsomal CLint at 1 μM in series [1] was determined as 278 µL/min/mg; in series [2], 484 µL/min/mg.

`CCCCNC(=O)c1ccc2c(c1)N=C(c1cccc(Cl)c1)c1cc(Cl)ccc1S2` [drawing 1750]: the microsomal CLint at 1 μM was 13 µL/min/mg in series [1] and 52 µL/min/mg in series [2].

For the compound `CC(C)CNC(=O)c1ccc2c(c1)N=C(c1ccsc1)c1ccccc1S2` [drawing 1753], the microsomal CLint at 1 μM was determined as 546 µL/min/mg in series [1] and 427 µL/min/mg in series [2].

For `CC(CNC(=O)c1ccc2c(c1)N=C(c1cccc(Cl)c1)c1ccccc1S2)c1ccccc1` (centres unmarked) [drawing 1755], the microsomal CLint at 1 μM in series [1] came to 56 µL/min/mg; in series [2], 174 µL/min/mg.

As for `O=C(NCCCc1ccccc1)c1ccc2c(c1)N=C(c1cccc(Cl)c1)c1ccccc1S2` [drawing 1765], the microsomal CLint at 1 μM in series [1] was determined as 72 µL/min/mg; in series [2], 163 µL/min/mg.

As for `O=C(NCCc1cccc(Cl)c1)c1ccc2c(c1)N=C(c1ccc(Cl)cc1)c1ccccc1S2` [drawing 1766], the results for the microsomal CLint at 1 μM in series [1] and in series [2] were 56 µL/min/mg and 116 µL/min/mg, respectively.

Consider `O=C(NCCc1cccc(Cl)c1)c1ccc2c(c1)N=C(c1ccc(F)cc1)c1ccccc1S2` [drawing 1768], for which the microsomal CLint at 1 μM in series [1] is 37 µL/min/mg; in series [2], 126 µL/min/mg.

On to `CC(CNC(=O)c1ccc2c(c1)N=C(C1CCCCC1)c1ccccc1S2)c1ccccc1` (centres unmarked) [drawing 1769], for which the intrinsic clearance (microsomal CLint) at 1 μM in series [1] stood at 125 µL/min/mg; in series [2], 267 µL/min/mg.

Consider `O=C(NCCc1ccccc1)c1ccc2c(c1)N=C(c1ccc(F)cc1)c1ccccc1S2` [drawing 1773], for which the microsomal CLint at 1 μM in series [1] came to 109 µL/min/mg; in series [2], 274 µL/min/mg.

`O=C(NCc1cccc(Cl)c1)c1ccc2c(c1)N=C(N1CCCCC1)c1ccccc1[S+]2[O-]` (centres unmarked) [drawing 1774]: the microsomal CLint at 1 μM in series [1] worked out at 90 µL/min/mg; in series [2], 416 µL/min/mg.

Take `O=C(NCc1ccc(F)cc1)c1ccc2c(c1)N=C(c1ccc(Cl)cc1)c1ccccc1S2(=O)=O` [drawing 1776]: the microsomal CLint at 1 μM turned out to be 13 µL/min/mg in series [1] and 17 µL/min/mg in series [2].

Take `O=C(NCc1cccc(Cl)c1)c1ccc2c(c1)N=C(C1CCCCC1)c1ccccc1S2` [drawing 1777]: the microsomal CLint at 1 μM in series [1] came to 70 µL/min/mg; in series [2], 458 µL/min/mg.

With `CCCCNC(=O)c1ccc2c(c1)N=C(c1ccc(Cl)cn1)c1ccc(F)cc1S2` [drawing 1778], the values for the microsomal CLint at 1 μM in series [1] and in series [2] were 29 µL/min/mg and 227 µL/min/mg, respectively.

With `O=C(NCc1ccccc1)c1ccc2c(c1)N=C(C1CCCCC1)c1ccccc1S2` [drawing 1779], the results for the microsomal CLint at 1 μM in series [1] and in series [2] were 81 µL/min/mg and 351 µL/min/mg, respectively.

For the compound `O=C(NCc1ccccc1Cl)c1ccc2c(c1)N=C(c1ccccc1)c1ccccc1S2` [drawing 1780], the microsomal CLint at 1 μM in series [1] turned out to be 57 µL/min/mg; in series [2], 178 µL/min/mg.

With `O=C(NCCc1ccc(Cl)cc1)c1ccc2c(c1)N=C(N1CCCCC1)c1ccccc1S2` [drawing 1783], the microsomal CLint at 1 μM is 434 µL/min/mg in series [1] and 506 µL/min/mg in series [2].

In the case of `COc1ccc(C2=Nc3cc(C(=O)NCCC(C)C)ccc3Sc3ccccc32)cc1` [drawing 1785], the values for the microsomal CLint at 1 μM in series [1] and in series [2] were 123 µL/min/mg and 177 µL/min/mg, respectively.
